Data set [1] concerns Bacopa monnieri leaf, internode and twig cuttings. The data set is described as follows: Response of leaf, internode and twig cutting explants to growth promoters (auxins, cytokinins) in MS 0 medium. It is filed as in vivo. The conditions noted are these: for Response observed, Cutting: MS 0 medium containing 1.0 mg/litre; for Response observed, Cutting / Response observed, Internode / Response observed, Leaf: recorded up to two weeks; for Response of leaf, internode and cuttings: MS 0 supplemented at 0.5 and 1.0 mg/litre. How it is done:
Initially the experiments were designed to observe the response of leaf, internode and cuttings against growth promoters (auxins: 2,4-D & Indole acetic acid) and […] (cytokinins: 6-Benzyl amino purine & kinetin). The basal medium for studying the response was MS 0 (Murashige T and Skoog F, 1962, Physiol. Planta. 15: 473–497) supplemented with these growth regulators at the rates of 0.5 and 1.0 mg/litre along with a control of just the basal medium.
The basal medium for studying the response was MS 0 (Murashige T and Skoog F, 1962, Physiol. Planta. 15: 473–497) supplemented with test compounds along with a control of just the basal medium. Measured 0.5 ml medium was poured into 1.5 ml graduated microcentrifuge tubes. Into this, twig cutting of 2.5 cm were inoculated in 20 replicates for each type of medium. These inoculated tubes were put into a half transparent (top lid) box allowing air passage through sterile cotton plugs such that the medium containing portion of the tubes where roots would be initiating is inserted into the stand holes made from a thermocol sheet. Refer FIG. 1 of Sheet #1. […] Such boxes were incubated at normal ambient temperature of 25–28° C. with 14 hours light and 10 hours dark cycle.
To find out the effect of growth promoters such as Indole 3 acetic acid (IAA), 2,4-Dichlorophenoxy acetic acid (2,4-D), and cytokinins such as 6-Benzyl Amino Purine (6-BAP) and Kinetin, the leaf, internode and twig cuttings were inoculated into MS 0 medium containing […] of the above said compounds and the responses were recorded up to two weeks in terms of rooting, callusing and shoot regeneration (Table 1).

Another data set has as its system Bacopa cultures. The conditions noted are these: in vivo; cited from earlier work.
Data set [2] concerns regenerants of Bacopa monniera. The conditions noted are these: cited from earlier work.
The next data set concerns Bacopa root tips. Type of data set: in vivo, Bacopa monnieri.
The test system of data set [3] is Bacopa monnieri twig cuttings. Type of data set: in vivo.
Data set [4] concerns Avocado cv. Verde in vitro. The conditions noted are these: antibiotic in the plant growth medium; cited from earlier work.
The subject of data set [5] is Bacopa monnieri twigs. The data set can be described thus: Cytotoxic/weedicidal effect: menthol in medium and Mentha arvensis oil sprayed on twigs. The conditions noted are these: menthol added to the medium and oil sprayed on the twigs. Type of data set: in vivo. How it is done:
We also planned the experiments to determine if this procedure can depict a clear cut manifestation of cytotoxic/weedicidal effect of compounds. For this purpose we used a known essential oil of Mentha arvensis, which is rich in the toxic but useful component, menthol as the treatment. The procedure involved was same as in the above examples with the exception that menthol was added to the medium and oil was sprayed on these twigs which were inoculated into the medium. […] Refer to FIG. #4 of Sheet #2.

Data set [6] has as its system Bacopa monnieri twigs. The data set is described as follows: Growth inhibitor test on twigs in basal MS media. It is filed as in vivo. The conditions noted are these: after 10 days of inoculation. How it is done:
The basal medium for studying the response was MS 0 (Murashige T and Skoog F, 1962, Physiol. Planta. 15: 473–497) supplemented with test compounds along with a control of just the basal medium. Measured 0.5 ml medium was poured into 1.5 ml graduated microcentrifuge tubes. Into this, twig cutting of 2.5 cm were inoculated in 20 replicates for each type of medium. These inoculated tubes were put into a half transparent (top lid) box allowing air passage through sterile cotton plugs such that the medium containing portion of the tubes where roots would be initiating is inserted into the stand holes made from a thermocol sheet. Refer FIG. 1 of Sheet #1. This set up was helpful in preventing the light exposure to the root portion while at the same time aerial parts got sufficient light and aeration. Such boxes were incubated at normal ambient temperature of 25–28° C. with 14 hours light and 10 hours dark cycle. […] The earliest response was seen was on day 3 in the case of medium containing ¼th level of nitrogen followed by medium containing normal level of nitrogen, while in the case of zero nitrogen, initiation was observed only after 8 days. Thus, the medium with ¼ nitrogen level of standard MS basal medium was selected for root assays and was referred as MSR (rooting) medium.
The effects of growth inhibitors were also tested using the protocol as described in Example 1. […]

The mark [7] stands for this setting: 10 and 100 μg/ml in MSR, up to day 15.
The mark [8] stands for this setting: concentrations ranging from 1 to 100 μg/ml, 14 days.

Molecules are shown by their SMILES. “Also recorded” adds a separate entry of the source. Like-named read-outs stand apart in the source and are kept apart here.

With `O=C(O)COc1ccc(Cl)cc1Cl` [2,4-D, 2,4-Dichlorophenoxy acetic acid], in data set [1], the “Response observed, Cutting” value was “Aerial Root”; the “Response of leaf, internode and cuttings” value is “small thick roots got initiated at the internodes”. Besides, in data set [1] (MS 0 medium containing 1 mg/ml), the “Response observed, Internode” value is recorded as “Root Initiation; also recorded: Root Thickening; also recorded: Explant Swelling” and the “Response observed, Leaf” value is reported as “Root Initiation; also recorded: Root Thickening; also recorded: Callus Initiation”.

Take `[Cl][Al]([Cl])[Cl]` [AlCl3]: in the data set on Bacopa cultures, the “Concentration beyond which Bacopa cultures could not survive” value was 400 µM.

`c1ccc(CNc2ncnc3nc[nH]c23)cc1` [BAP, 6-Benzyl Amino Purine]: in data set [1], the “Response observed, Cutting” value was “Root Initiation and Root”; the “Response of leaf, internode and cuttings” value was “green callus developed in all three explants followed by shoot regeneration”. In addition, in data set [1] (MS 0 medium containing 1 mg/ml), the “Response observed, Internode” value was “Callus Initiation; also recorded: Shoot” and the “Response observed, Leaf” value is given as “Callus Initiation; also recorded: Shoot”. For the same molecule, the “Response of leaf and internodal explant” value in data set [1] (MS 0 medium containing 1 mg/ml, up to two weeks) is “green callus has formed, followed by shoot regeneration”.

Consider `[Cd]` [Cd, cadmium], for which the Concentration tolerated result in data set [2] (grown with additional supply of Cu) is “up to 100 μM”. Further, the “Concentration beyond which regenerants did not survive” value in data set [2] (in vivo) was 50 µM.

Consider `O=C(O)Cc1c[nH]c2ccccc12` [IAA, Indole 3 acetic acid], for which, in data set [1], the “Response observed, Cutting” value is reported as “Aerial Root”; the “Response of leaf, internode and cuttings” value is reported as “profuse rooting”. Further, in data set [1] (MS 0 medium containing 1 mg/ml), the “Response observed, Internode” value was “Root Initiation” and the “Response observed, Leaf” value is given as “Root Initiation”.

For the molecule `c1coc(CNc2ncnc3[nH]cnc23)c1` [Kinetin], the “Response observed, Cutting” value in data set [1] was “Root Initiation and Root”. In addition, in data set [1] (MS 0 medium containing 1 mg/ml), the “Response observed, Internode” value is on record as “No Response” and the “Response observed, Leaf” value was “Root Initiation”.

Take `CC(=O)O[C@H]1C(=O)[C@@]2(C)[C@H]([C@H](OC(=O)c3ccccc3)[C@]3(O)C[C@H](OC(=O)[C@H](O)[C@@H](NC(=O)c4ccccc4)c4ccccc4)C(C)=C1C3(C)C)[C@]1(OC(C)=O)CO[C@@H]1C[C@@H]2O` [Taxol, taxol]: in the data set with Bacopa root tips (10 μg/ml), the “Effect on mitotic index (words)” value is “significantly reduce the mitotic index” and the “Reduction of mitotic index compared to untreated control samples” value amounted to 2.55 fold. In the data set on Bacopa root tips (10 μg/ml, dipping 3 hours), the “Number of cells in phase Ana” value was 01, the “Number of cells in phase Meta” value was 03, the “Number of cells in phase Pro” value worked out at 01 and the “Number of cells in phase Telo” value turned out to be 00. Further, the “Mitotic Index” value in the data set with Bacopa root tips (10 μg/ml, dipping 3 hours, 10 randomly selected fields) was 7.14 ± 1.52. Also, the “Effect on mitotic index (words)” value in the data set with Bacopa root tips (10 μg/ml, listed as taxol) is “substantial reduction in the mitotic index”. Moreover, the “Cell division in the root tips” value in the data set with Bacopa root tips (100 μg/ml) is “inhibited almost complete cell division”. In data set [3] (setting [7]), the Root initiation result is “inhibited the complete root initiation” and the “Visible effect on the aerial parts” value is listed as “wilting of the leaves”. Besides, in data set [3] (setting [8]), the Root initiation result is on record as “did not initiate the roots at all”; the “Shoot growth and health” value was “no shoot growth; also recorded: wilting and later withering”.

Take `O=C(N[C@H](CO)[C@H](O)c1ccc([N+](=O)[O-])cc1)C(Cl)Cl` [chloramphenicol]: in data set [4], the “Toxicity to avocado (length of sprouts reduced)” value is recorded as “toxic”.

As to `CC1CCC(C(C)C)C(O)C1` (centres unmarked) [menthol], the “Spread of chlorophyll loss” value in the data set on Bacopa monnieri twigs [5] is on record as “within a week time covered whole twig”.

As for `CCn1cc(C(=O)O)c(=O)c2ccc(C)nc21` [nalidixic acid, Nalidixic acid], the “Root initiation and growth” value in the data set on Bacopa monnieri twigs [6] (10 μg/ml) is “roots got initiated from the submerged nodes but their growth was less than the control”; in the data set on Bacopa monnieri twigs [6] (100 μg/ml), “very small roots arose from submerged node and their growth was completely arrested”. For the same molecule, in data set [4], the “Toxicity to avocado (length of sprouts reduced)” value is given as “toxic”.

`[H]/N=C(/N)N[C@H]1[C@H](O)[C@@H](O)[C@H](O[C@@H]2O[C@@H](C)[C@](O)(C=O)[C@H]2O[C@@H]2O[C@@H](CO)[C@H](O)[C@@H](O)[C@@H]2NC)[C@@H](N/C(N)=N\[H])[C@@H]1O` [streptomycin]: the “Toxicity to avocado (length of sprouts reduced)” value in data set [4] is “toxic”.

Values taken from patent publication US7262003B2, “Plant test procedure to detect natural, semi-synthetic, synthetic compounds and physical stress factors through expression of distinct responses” (Council of Scientific and Industrial Research, priority 1998, dated 2007).
